The text below walks through data of ChEMBL document CHEMBL3046439, “Spectroscopic characterization of novel d-amino acid-Schiff bases and their Cr(III) and Ni(II) complexes as antimicrobial agents” (2013).

The subject of experiment [1] is Brucella abortus. Put plainly: Antimicrobial activity against Brucella abortus (A.99, UK-1995) RSKK03026 assessed as diameter of growth inhibition zone at 30 ug after 24 hr by well-diffusion method. The note with it: (A.99, UK-1995) RSKK03026, 24 h, read-out: DIZ. It counts as functional.
Experiment [2] has as its system Staphylococcus aureus. Put plainly: Antimicrobial activity against Staphylococcus aureus ATCC 25923 assessed as diameter of growth inhibition zone at 0.25 ug/ml after 24 hr by well-diffusion method. It is filed as functional. The note with it: ATCC 25923, 24 h, read-out: DIZ. A general note: A growth-free zone around the sample is the usual read-out of agar diffusion tests.

In experiment [3] the test system is Brucella abortus. Briefly: Antimicrobial activity against Brucella abortus (A.99, UK-1995) RSKK03026 assessed as diameter of growth inhibition zone at 0.25 ug/ml after 24 hr by well-diffusion method. It counts as functional. The note with it: (A.99, UK-1995) RSKK03026, 24 h, read-out: DIZ.
Experiment [4] concerns Candida albicans. Put plainly: Antimicrobial activity against Candida albicans Y-1200-NIH assessed as diameter of growth inhibition zone at 0.25 ug/ml after 24 hr by well-diffusion method. To be noted: read-out: DIZ. It is filed as functional.
The test system of experiment [5] is Staphylococcus epidermidis. Put plainly: Antimicrobial activity against Staphylococcus epidermidis assessed as diameter of growth inhibition zone at 0.25 ug/ml after 24 hr by well diffusion method. It counts as functional. The note with it: read-out: DIZ.
Experiment [6] deals with Escherichia coli. Put plainly: Antimicrobial activity against Escherichia coli ATCC 1280 assessed as diameter of growth inhibition zone at 0.25 ug/ml after 24 hr by well-diffusion method. It is filed as functional. To be noted: ATCC 1280, 24 h, read-out: DIZ.
Experiment [7] relates to Listeria monocytogenes. Put plainly: Antimicrobial activity against Listeria monocytogenes ATCC 19115 assessed as diameter of growth inhibition zone at 0.25 ug/ml after 24 hr by well-diffusion method. It is filed as functional. To be noted: ATCC 19115, 24 h, read-out: DIZ.
Experiment [8] deals with Micrococcus luteus. Put plainly: Antimicrobial activity against Micrococcus luteus ATCC 9341 assessed as diameter of growth inhibition zone at 0.25 ug/ml after 24 hr by well-diffusion method. To be noted: ATCC 9341, 24 h, read-out: DIZ. It counts as functional.
The subject of experiment [9] is Salmonella typhi. Put plainly: Antimicrobial activity against Salmonella enterica subsp. enterica serovar Typhi H NCTC 901.8394 assessed as diameter of growth inhibition zone at 0.25 ug/ml after 24 hr by well-diffusion method. It counts as functional. To be noted: H NCTC 901.8394, 24 h, read-out: DIZ.
The subject of experiment [10] is Shigella dysenteriae. Briefly: Antimicrobial activity against Shigella dysenteriae type 10 NCTC 9351 assessed as diameter of growth inhibition zone at 0.25 ug/ml after 24 hr by well diffusion method. It counts as functional. To be noted: type 10 NCTC 9351, 24 h, read-out: DIZ.
The subject of experiment [11] is Staphylococcus aureus. Put plainly: Antimicrobial activity against Staphylococcus aureus ATCC 25923 assessed as diameter of growth inhibition zone at 30 ug after 24 hr by well-diffusion method. It counts as functional. The note with it: ATCC 25923, 24 h, read-out: DIZ.
Experiment [12] relates to Salmonella typhi. Briefly: Antimicrobial activity against Salmonella enterica subsp. enterica serovar Typhi H NCTC 901.8394 assessed as diameter of growth inhibition zone at 30 ug after 24 hr by well-diffusion method. It is filed as functional. To be noted: H NCTC 901.8394, 24 h, read-out: DIZ.
Experiment [13] deals with Listeria monocytogenes. Put plainly: Antimicrobial activity against Listeria monocytogenes ATCC 19115 assessed as diameter of growth inhibition zone at 30 ug after 24 hr by well-diffusion method. The note with it: ATCC 19115, 24 h, read-out: DIZ. It counts as functional.
In experiment [14] the test system is Escherichia coli. Briefly: Antimicrobial activity against Escherichia coli ATCC 1280 assessed as diameter of growth inhibition zone at 30 ug after 24 hr by well-diffusion method. It counts as functional. To be noted: ATCC 1280, 24 h, read-out: DIZ.
Experiment [15] concerns Listeria monocytogenes. Put plainly: Antimicrobial activity against Listeria monocytogenes ATCC 19115 assessed as diameter of growth inhibition zone at 10 ug after 24 hr by well-diffusion method. It is filed as functional. The note with it: ATCC 19115, 24 h, read-out: DIZ.
In experiment [16] the test system is Staphylococcus aureus. Put plainly: Antimicrobial activity against Staphylococcus aureus ATCC 25923 assessed as diameter of growth inhibition zone at 10 ug after 24 hr by well-diffusion method. To be noted: ATCC 25923, 24 h, read-out: DIZ. It is filed as functional.
Experiment [17] has as its system Escherichia coli. Put plainly: Antimicrobial activity against Escherichia coli ATCC 1280 assessed as diameter of growth inhibition zone at 10 ug after 24 hr by well-diffusion method. It is filed as functional. To be noted: ATCC 1280, 24 h, read-out: DIZ.
For experiment [18], the system named is Salmonella typhi. Put plainly: Antimicrobial activity against Salmonella enterica subsp. enterica serovar Typhi H NCTC 901.8394 assessed as diameter of growth inhibition zone at 10 ug after 24 hr by well-diffusion method. It is filed as functional. The note with it: H NCTC 901.8394, 24 h, read-out: DIZ.
Experiment [19] has as its system Staphylococcus aureus. Briefly: Antimicrobial activity against Staphylococcus aureus ATCC 25923 assessed as diameter of growth inhibition zone at 25 ug after 24 hr by well-diffusion method. It counts as functional. The note with it: ATCC 25923, 24 h, read-out: DIZ.
The test system of experiment [20] is Salmonella typhi. Briefly: Antimicrobial activity against Salmonella enterica subsp. enterica serovar Typhi H NCTC 901.8394 assessed as diameter of growth inhibition zone at 25 ug after 24 hr by well-diffusion method. It is filed as functional. The note with it: H NCTC 901.8394, 24 h, read-out: DIZ.
For experiment [21], the system named is Listeria monocytogenes. Put plainly: Antimicrobial activity against Listeria monocytogenes ATCC 19115 assessed as diameter of growth inhibition zone at 25 ug after 24 hr by well-diffusion method. It is filed as functional. The note with it: ATCC 19115, 24 h, read-out: DIZ.
Experiment [22] relates to Escherichia coli. Put plainly: microbe, parasite or virus in culture. To be noted: ATCC 1280, 24 h, read-out: DIZ.

Turning to `CC1(C)[C@H](C(=O)O)N2C(=O)C[C@H]2S1(=O)=O` [SULBACTAM], the zone of inhibition at 30 µg/disc in experiment [1] stood at 12 mm.

With `C[C@@H](/N=C/c1cc(F)ccc1O)C(=O)O`, the zone of inhibition at 0.25 µg/mL in experiment [2] is 6 mm; in [3], 10.5 mm; in experiment [4], 12.5 mm; in [5] it was 5 mm; in [6] it was 10 mm; in experiment [7], 6.5 mm. In experiment [8], the zone of inhibition at 0.25 µg/mL was found to be 14 mm.

For the compound `O=C(O)C/N=C/c1cc(F)cc(Cl)c1O`, the zone of inhibition at 0.25 µg/mL amounted to 18.5 mm in [2]; 18 mm in experiment [9]; 15 mm in [3]; 15.5 mm in [4]; 12.5 mm in experiment [5]; 16 mm in experiment [6]. Moreover, the zone of inhibition at 0.25 µg/mL worked out at 18 mm in [10], 10 mm in experiment [7] and 26.5 mm in [8].

On to `NC[C@H]1O[C@H](O[C@H]2[C@H](O)[C@@H](O[C@H]3O[C@H](CO)[C@@H](O)[C@H](N)[C@H]3O)[C@H](N)C[C@@H]2N)[C@H](O)[C@@H](O)[C@@H]1O` [KANAMYCIN], for which the zone of inhibition at 30 µg/disc in experiment [11] was 25 mm; in experiment [12] it was 20 mm; in experiment [13], 15 mm; in experiment [14], 25 mm.

For the compound `C[C@@H](/N=C/c1cc(F)cc(Cl)c1O)C(=O)O`, the zone of inhibition at 0.25 µg/mL worked out at 16 mm in experiment [2]; 11.5 mm in experiment [9]; 17.5 mm in experiment [3]; 15 mm in [4]; 12 mm in experiment [5]; 15.5 mm in experiment [6]. The zone of inhibition at 0.25 µg/mL worked out at 11.5 mm in experiment [10], 12.5 mm in experiment [7] and 23.5 mm in experiment [8].

Take `CC1(C)S[C@@H]2[C@H](NC(=O)[C@H](N)c3ccc(O)cc3)C(=O)N2[C@H]1C(=O)O` [AMOXICILLIN]: the zone of inhibition at 30 µg/disc in [11] was 30 mm; in experiment [12] it was 19 mm; in [13], 22 mm; in experiment [14], 14 mm.

Take `CC1(C)S[C@@H]2[C@H](NC(=O)[C@H](N)c3ccccc3)C(=O)N2[C@H]1C(=O)O` [AMPICILLIN]: the zone of inhibition at 10 µg/disc in experiment [15] was 16 mm; in experiment [16], 30 mm; in [17], 10 mm; in [18] it was 11 mm.

As to `O=C(O)C/N=C/c1cc(F)ccc1O`, the zone of inhibition at 0.25 µg/mL in experiment [2] was found to be 7 mm; in experiment [9] it was 15 mm; in experiment [3], 11.5 mm; in experiment [4] it was 10 mm; in experiment [5] it was 6 mm; in experiment [6], 13 mm. Moreover, the values for the zone of inhibition at 0.25 µg/mL in experiment [10], in [7] and in experiment [8] were 11 mm, 10 mm and 15 mm, respectively.

For `Cc1cc(NS(=O)(=O)c2ccc(N)cc2)no1` [SULFAMETHOXAZOLE], the zone of inhibition at 25 µg/disc in experiment [19] is 24 mm; in experiment [20], 17 mm; in experiment [21], 11 mm; in [22], 18 mm.
